Values quoted from earlier work, collected in patent publication US5502037A, “Pro-cytotoxic drug conjugates for anticancer therapy” (priority 1993, dated 1996).
Like-named read-outs stand apart in the source and are kept apart here.

Experiments:
[1] = NBP test, relative to NNM; taken from Brock, 1976
[2] = test system: mouse Yoshida ascites sarcoma cells; settings: for In vitro activities: Cytotoxicity: cu = cytostatic units, Yoshida ascites sarcoma cells, Brock, 1976
tumor cells = settings: for activity as the result of in vivo metabolism: once activated / metabolized

Structure (SMILES)	In vitro activities: Alkylating [1]	activity in vivo against the rat Yoshida ascites sarcoma (in words) (Yoshida ascites sarcoma; comment on Table II)	In vivo activities: CD50 (Yoshida ascites sarcoma; curative dose, Yoshida ascites sarcoma in rat, Brock, 1976)	D50 Index (LD50/CD50) (Yoshida ascites sarcoma; rat, in vivo)	In vivo activities: LD50 (Yoshida ascites sarcoma; rat, in vivo)	activity in the in vitro Yoshida cell cytotoxicity test (in words) ([2]; comment on Table II)	In vitro activities: Cytotoxicity [2]	activity as the result of in vivo metabolism (tumor cells)	biologic activity in vitro and in vivo before metabolism (tumor cells; initially, in vitro and in vivo)	In vivo activities: LD50 (Yoshida ascites sarcoma; lethal dose, rat, Brock, 1976)	In vivo activities: CD50 (Yoshida ascites sarcoma; rat, in vivo)
O=P1(N(CCCl)CCCl)NCCCO1 (stereo not drawn) [CP, cyclophosphamide]	1.3%	highly active therapeutic agent	1.25 mg/kg	175	220 mg/kg	virtually inactive	< 0.03 CU/μmol	highly cancerotoxic	only slight biologic activity	–	–
C=CC=O [Acrolein, acrolein]	1.9%	–	–	~ 3	–	–	0.4 CU/μmol	–	–	7.3 mg/kg	> 2.15 mg/kg
O=P1(NCCCl)OCCCN1CCCl (stereo not drawn) [isophosphamide]	–	–	–	–	–	–	–	highly cytotoxic in vivo to tumor cells once activated	–	–	–
